Source: patent US11234971B2, “Methods of treating cancer comprising administration of a glucocorticoid receptor modulator and a cancer chemotherapy agent” (Corcept Therapeutics Incorporated, priority 2018, dated 2022)

Legend:
[1] = system: OVCAR-5 human ovarian cancer cells; assay: OVCAR-5 cell growth (Cell Titer-Glo) with chemotherapy agents with or without dexamethasone and relacorilant; assay type: cell-based
Protocol: The initial cell density was chosen to be low enough to allow for several population doublings (typically 3 to 5) during the indicated incubation period. […] After 48 hours of incubation, serially diluted test agents in growth medium were added to each well. After 72 hours of culture, the plated cells and Cell Titer-Glo® (Promega G7571) reagents were brought to room temperature to equilibrate for 30 minutes. 200 μL of Cell Titer-Glo® reagent was then added to each well, the plate was shaken for two minutes, and then left to equilibrate for ten minutes. The Cell Titer-Glo® cell viability assay uses ATP levels to determine cell numbers. After this equilibration, luminescence was read on the Biotech Synergy II microplate reader. The percent control (% C) of cell growth for each test concentration was calculated relative to untreated wells. All tests were performed in quadruplicate. Individual assay plates were evaluated for appropriate signal and well-to-well variance in the control wells for quality control.

[2] = system: advanced or metastatic solid tumors; assay: Tumor assessments per RECIST 1.1 in study NCT02762981; assay type: in vivo, human; conditions: of 21 patients with paired samples; relacorilant plus nab-paclitaxel
Protocol: In the following, reference is made to RECIST and RECIST 1.1, which refer to the Response Evaluation Criteria for Solid Tumors. These criteria, first promulgated in 2000, and updated in 2009 (as RECIST 1.1.), are generally accepted, and nearly universally used criteria for clinical trials of therapies for solid tumors. See, e.g., Schwartz et al., Eur J Cancer. July; 62: 132-137 (2016). The study described in this Example was performed and evaluated according to these criteria. Detection of the ovarian cancer marker CA-125 was also used, per Gynecologic Cancer Intergroup (GCIG) criteria, in evaluating the patient samples.
Patients Patients with solid tumors were enrolled in study NCT02762981, a phase 1/2 study of CORT125134 (aka relacorilant) in combination with nab-paclitaxel. The patients were all 18 years of age or older, with advanced or metastatic solid tumors who have disease progression; all patients gave informed consent to participate in this study.
Patients received one or more cycles of treatments as describe schematically in FIGS. 1 and 2. The treatment schedules of each 28-day cycle are shown in those figures. Patients in Segment I of the study received continuous dosing of relacorilant (“CORT125134”); that is, relacorilant was administered to the patients on a daily basis. […]

androgen receptor = androgen receptor (Homo sapiens, UniProt P10275); conditions: cited from earlier work
progesterone receptor = progesterone receptor (Homo sapiens, UniProt P06401); conditions: cited from earlier work
[3] = OVCAR-5, glucocorticoid 100 nM dexamethasone, relacorilant in the presence of the glucocorticoid

Chain of androgen receptor (P10275 whole entry, species assumed): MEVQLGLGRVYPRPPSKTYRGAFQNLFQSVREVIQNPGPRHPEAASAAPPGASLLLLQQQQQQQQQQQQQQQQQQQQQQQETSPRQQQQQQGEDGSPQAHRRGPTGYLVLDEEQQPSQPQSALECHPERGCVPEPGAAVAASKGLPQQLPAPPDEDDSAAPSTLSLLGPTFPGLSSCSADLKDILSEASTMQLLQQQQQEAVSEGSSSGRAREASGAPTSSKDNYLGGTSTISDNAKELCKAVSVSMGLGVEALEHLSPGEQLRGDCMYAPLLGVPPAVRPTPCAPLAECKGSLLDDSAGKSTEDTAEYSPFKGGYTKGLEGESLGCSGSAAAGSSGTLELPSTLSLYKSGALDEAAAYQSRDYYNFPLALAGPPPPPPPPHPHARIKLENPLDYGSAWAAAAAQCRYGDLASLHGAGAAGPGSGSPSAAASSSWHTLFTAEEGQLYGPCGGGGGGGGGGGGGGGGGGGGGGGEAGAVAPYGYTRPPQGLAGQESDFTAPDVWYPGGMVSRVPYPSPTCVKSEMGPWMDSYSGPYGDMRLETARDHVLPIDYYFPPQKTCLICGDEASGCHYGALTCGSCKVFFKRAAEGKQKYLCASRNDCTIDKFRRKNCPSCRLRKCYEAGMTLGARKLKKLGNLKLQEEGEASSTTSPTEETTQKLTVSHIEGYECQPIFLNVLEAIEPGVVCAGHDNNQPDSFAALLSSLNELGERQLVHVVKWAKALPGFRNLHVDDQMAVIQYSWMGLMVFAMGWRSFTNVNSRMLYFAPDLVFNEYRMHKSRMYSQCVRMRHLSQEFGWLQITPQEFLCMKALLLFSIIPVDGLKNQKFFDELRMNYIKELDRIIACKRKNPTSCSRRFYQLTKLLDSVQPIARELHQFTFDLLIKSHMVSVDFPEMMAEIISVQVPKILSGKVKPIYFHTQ
Chain of progesterone receptor (P06401 whole entry, species assumed): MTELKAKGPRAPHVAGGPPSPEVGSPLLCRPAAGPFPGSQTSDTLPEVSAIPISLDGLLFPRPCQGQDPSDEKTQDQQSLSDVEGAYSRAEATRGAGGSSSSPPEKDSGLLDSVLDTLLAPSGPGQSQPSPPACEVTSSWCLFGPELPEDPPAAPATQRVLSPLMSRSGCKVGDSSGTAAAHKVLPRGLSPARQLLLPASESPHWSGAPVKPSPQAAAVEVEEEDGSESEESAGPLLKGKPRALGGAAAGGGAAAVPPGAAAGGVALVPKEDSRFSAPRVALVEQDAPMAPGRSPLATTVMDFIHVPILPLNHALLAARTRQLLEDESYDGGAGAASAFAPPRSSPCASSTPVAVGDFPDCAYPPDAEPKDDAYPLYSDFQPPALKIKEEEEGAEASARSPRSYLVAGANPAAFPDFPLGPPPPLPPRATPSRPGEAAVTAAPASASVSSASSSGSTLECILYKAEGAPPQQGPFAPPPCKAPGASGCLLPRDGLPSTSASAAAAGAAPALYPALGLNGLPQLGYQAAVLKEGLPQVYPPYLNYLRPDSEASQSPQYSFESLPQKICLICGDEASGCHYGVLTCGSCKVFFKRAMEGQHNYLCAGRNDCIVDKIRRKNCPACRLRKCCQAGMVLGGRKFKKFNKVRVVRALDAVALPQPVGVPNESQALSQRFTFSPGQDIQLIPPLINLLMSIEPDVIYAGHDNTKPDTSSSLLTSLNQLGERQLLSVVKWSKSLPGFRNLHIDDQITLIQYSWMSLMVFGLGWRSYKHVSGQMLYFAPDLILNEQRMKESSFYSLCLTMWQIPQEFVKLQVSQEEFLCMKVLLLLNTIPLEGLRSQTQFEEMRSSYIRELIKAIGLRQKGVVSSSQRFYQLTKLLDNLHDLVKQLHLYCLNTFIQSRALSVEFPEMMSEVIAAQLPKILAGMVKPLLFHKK

Cn1cc(S(=O)(=O)N2CCC3=Cc4c(cnn4-c4ccc(F)cc4)C[C@]3(C(=O)c3cc(C(F)(F)F)ccn3)C2)cn1 [relacorilant, (R)-(1-(4-fluorophenyl)-6-((1-methyl-1H-pyrazol-4-yl)sulfonyl)-4,4a,5,6,7,8-hexahydro-1H-pyrazolo[3,4-g]isoquinolin-4a-yl)(4-(trifluoromethyl)pyridin-2-yl)methanone]
cell numbers (luminosity) in the presence of bortezumib and palbociclib ([1]; OVCAR-5, bortezumib 500 μM, palbociclib 100 μM, 100 nM dexamethasone, 300 nM relacorilant): opposed
maximal toxicity at high chemotherapy concentrations ([1]; OVCAR-5, dexamethasone, relacorilant + dexamethasone): reversed this
half-maximal potency of / sensitivity to oxaliplatin [1, 3]: restored sensitivity to oxaliplatin
maximum effect of / sensitivity to gemcitabine [1, 3]: restored sensitivity to gemcitabine
maximum effect of / sensitivity to paclitaxel [1, 3]: restored sensitivity to paclitaxel
effects of dexamethasone on response to chemotherapeutic agents ([1]; OVCAR-5, several chemotherapeutic agents): reversed the effects of dexamethasone in all cases
potency of carboplatin ([1]; OVCAR-5 grown with 100 nM dexamethasone, carboplatin titrated against increasing amounts of relacorilant): dose-dependently increased
patients who experienced benefit from therapy (SD, PR or CR) [2]: 11 patients
patients who experienced progressive disease [2]: 10 patients
Ki (androgen receptor): > 10 µM
Ki (progesterone receptor): > 10 µM
